{"source": "patent US20030181426A1", "about": "“Compositions and methods for treating pain using cyclooxygenase-1 inhibitors” (priority 2002, published 2003)", "key": {"COX-1 and COX-2": {"system": "COX-1 and COX-2", "conditions": "as known in the art / Warner, 1999; cited from earlier work"}, "[1]": {"system": "acetic acid-induced writhing response", "conditions": "mice; COX-1 sensitive pain models; Ochi et al. 2000; cited from earlier work"}, "tactile allodynia [2]": {"system": "tactile allodynia", "experiment": "Partial sciatic nerve ligation (PSNL) tactile allodynia, i.t. COX inhibitors", "type": "in vivo, Sprague-Dawley rats", "text": "A Sprague-Dawley rats (Harlan Industries, Indianapolis, Ind., USA), weighing 200-250 g, were used in this study. All animal surgical procedures were in conformity with the Wake Forest University guidelines on the ethical use of animals and studies were approved by the Animal Care and Use Committee. Animals were implanted with intrathecal catheters according to the method described previously. (Yaksh TL, 1976). Briefly, under halothane anesthesia (2-4% in oxygen/air), animals were placed prone in a stereotaxic frame and a small incision was made at the back of the neck. A small puncture was made in the atlanto-occipital membrane of the cistema magna and a polyethylene catheter (PE-10, 7.5 cm) was inserted so that the caudal tip reached the lumbar enlargement of the spinal cord. The rostral end of the catheter was exteriorized at the top of the head and the wound was closed with sutures. Animals were allowed 4-5 days to recover from the surgery and those displaying signs of motor dysfunction (fore limb or hind limb paralysis) were excluded from the study. Rats were anesthetized with 2-4% halothane in oxygen-air. For partial […] nerve ligation (PSNL), the left sciatic nerve was exposed at the high thigh level and one-third to one-half of the nerve was ligated with silk suture (size 6) as previously described (Shir et al., 1991). Animals were maintained after surgery with ad libitum food and water on a 12-h light/dark cycle. All rats were allowed to recover for 4 weeks after PSNL. By then, tactile allodynia was well established in the ipsilateral hindpaw."}, "inflammation": {"system": "inflammation", "conditions": "rat animal model; compared to indomethancin; Mansferrer et al. 1994; cited from earlier work"}, "noxious heat": {"system": "noxious heat", "experiment": "Latency to paw withdrawal from noxious heat", "type": "in vivo, male Sprague-Dawley rats", "conditions": "drug alone; rats with intrathecal catheter", "procedure": "After Animal Care and Use Committee approval, adult male Sprague-Dawley rats (240-330 g; Harlan, Indianapolis, Ind.) were anesthetized with halothane. A catheter was inserted, as previously described, through a small nick in the cisterna magnum membrane into the intrathecal space and advanced 7.5 cm such that its tip lay in the lumbar intrathecal space. […] After catheter implantation, rats were housed individually with a 12 h/12 h light/dark cycle and an unlimited supply of water and food. Experiments occurred at least 6 days after surgery."}, "tactile allodynia [3]": {"system": "tactile allodynia", "experiment": "L5 and L6 spinal nerve ligation (SNL) tactile allodynia, lidocaine and ketorolac", "type": "in vivo, male Sprague-Dawley rats"}, "[4]": {"conditions": "rat, in vivo, ip"}, "tactile allodynia [5]": {"system": "tactile allodynia", "experiment": "PSNL tactile allodynia, lidocaine", "type": "in vivo, male Sprague-Dawley rats"}, "[6]": {"experiment": "Hind limb weakness or paralysis after lidocaine injection"}, "[7]": {"system": "locomotor activity after laparotomy", "experiment": "Post-laparotomy locomotor activity model", "type": "in vivo, rats"}, "nociceptive responses [8]": {"system": "nociceptive responses", "conditions": "mice with paw inflammation; Mazario et al. 2001; cited from earlier work"}, "nociceptive responses [9]": {"system": "nociceptive responses", "conditions": "normal and monoarthritic rats; Mazario et al. 2001; cited from earlier work"}, "[10]": {"conditions": "300 μg intrathecal, 3 days after injection"}, "[11]": {"conditions": "IV 3 mg/kg, 24 hr after laparotomy, 3 mg/kg"}}, "note": "Entries after “also recorded” stand apart in the source; their conditions may differ. Where two headings read alike, the source gives them in different places."}
{"smiles": "COc1ccc2cc(CC(=O)O)ccc2c1", "note": "[6-methoxy-2-napthyl acetic acid]", "values": [{"measurement": "preference in inhibition of COX-1 and COX-2", "setting": "COX-1 and COX-2", "value": "preferentially inhibit COX-2"}]}
{"smiles": "COc1ccc(-c2nc(C(=O)N3CCN(C)CC3)sc2-c2ccc(OC)cc2)cc1", "note": "[FR122047]", "values": [{"measurement": "analgesic effect against acetic acid-induced writhing response", "setting": "[1]", "value": "dose-dependent analgesic effect"}]}
{"smiles": "CS(=O)(=O)Nc1ccc([N+](=O)[O-])cc1OC1CCCCC1", "note": "[NS-398]", "values": [{"measurement": "withdrawal threshold, ipsilateral hindpaw", "setting": "tactile allodynia [2]; 2 and 4 h after injection", "value": "reversed to pre-lesion baseline level"}, {"measurement": "duration of reversal of withdrawal threshold", "setting": "tactile allodynia [2]; 4 weeks after PSNL", "value": 24, "unit": "h"}, {"measurement": "withdrawal threshold, ipsilateral hindpaw", "setting": "tactile allodynia [2]; 48 h post-injection", "value": "returned to pre-injection level"}, {"measurement": "anti-inflammatory and ulcerogenic effect", "setting": "inflammation", "value": "anti-inflammatory but not ulcerogenic"}, {"measurement": "analgesic effect against acetic acid-induced writhing response", "setting": "[1]", "value": "had no effect"}]}
{"smiles": "Clc1cccc(Cl)c1N=C1NCCN1", "note": "[clonidine]", "values": [{"measurement": "antinociception (latency to paw withdrawal from noxious heat)", "setting": "noxious heat", "value": "produced antinociception"}]}
{"smiles": "CC(C(=O)O)c1ccc(-c2ccccc2)c(F)c1", "note": "(stereo not shown) [flubiprofen]", "values": [{"measurement": "preference in inhibition of COX-1 and COX-2", "setting": "COX-1 and COX-2", "value": "preferentially inhibit COX-1"}]}
{"smiles": "CC(C)Cc1ccc(C(C)C(=O)O)cc1", "note": "(stereo not shown) [ibuprofen]", "values": [{"measurement": "preference in inhibition of COX-1 and COX-2", "setting": "COX-1 and COX-2", "value": "no or small preferences in inhibition of COX-1 and COX-2"}]}
{"smiles": "COc1ccc2c(c1)c(CC(=O)O)c(C)n2C(=O)c1ccc(Cl)cc1", "note": "[indomethancin]", "values": [{"measurement": "preference in inhibition of COX-1 and COX-2", "setting": "COX-1 and COX-2", "value": "preferentially inhibit COX-1"}]}
{"smiles": "CCN(CC)CC(=O)Nc1c(C)cccc1C", "note": "[lidocaine]", "values": [{"measurement": "tactile allodynia, ipsilateral hind paw", "setting": "tactile allodynia [3]; 100 μg intrathecal, four weeks following SNL, two hours and 2 days following injection", "value": "markedly reversed to the prelesion level"}, {"measurement": "withdrawal threshold in the hind paw", "setting": "tactile allodynia [3]; 100 μg intrathecal, three days after injection", "value": "not significantly lower than the prelesion baseline value"}, {"measurement": "tactile allodynia, ipsilateral hind paw", "setting": "tactile allodynia [3]; 200 μg intrathecal, four weeks following SNL, two hours and 2 days following injection", "value": "markedly reversed to the prelesion level"}, {"measurement": "tactile allodynia, ipsilateral hind paw", "setting": "tactile allodynia [3]; 200 μg intrathecal, three days after injection", "value": "reappeared"}, {"measurement": "tactile allodynia, ipsilateral hind paw", "setting": "tactile allodynia [3]; 300 μg intrathecal, four weeks following SNL, two hours and 2 days following injection", "value": "markedly reversed to the prelesion level"}, {"measurement": "tactile allodynia, ipsilateral hind paw", "setting": "tactile allodynia [3]; 300 μg intrathecal, three days after injection", "value": "reappeared"}, {"measurement": "behavior", "setting": "[4]", "value": "no abnormal behavior"}, {"measurement": "tactile allodynia", "setting": "tactile allodynia [5]; 300 μg intraperitoneal, four PSNL rats", "value": "no attenuation or reversal of tactile allodynia was observed"}, {"measurement": "antiallodynic effect", "setting": "tactile allodynia [5]; 300 μg intrathecal, 1 week after injection", "value": "disappeared"}, {"measurement": "effect on the ipsilateral hind paw", "setting": "tactile allodynia [5]; [10]", "value": "antinociceptive effect"}, {"measurement": "reversal of tactile allodynia", "setting": "tactile allodynia [5]; [10]", "value": "also observed"}, {"measurement": "tactile allodynia in both hind paws", "setting": "tactile allodynia [5]; 300 μg intrathecal, two weeks after PSNL, two hours following injection", "value": "significantly reversed"}, {"measurement": "transient weakness or paralysis of both hind limbs, incidence", "setting": "[6]; 100 μg intrathecal", "value": "completely absent"}, {"measurement": "transient weakness or paralysis of both hind limbs, incidence", "setting": "[6]; 200 μg intrathecal", "value": "one third of rats"}, {"measurement": "transient weakness or paralysis of both hind limbs, incidence", "setting": "[6]; 300 μg intrathecal", "value": "almost all rats"}, {"measurement": "duration of transient weakness or paralysis", "setting": "[6]; intrathecal lidocaine", "value": "10 to 20", "unit": "min"}]}
{"smiles": "CN1CC[C@]23c4c5ccc(O)c4O[C@H]2[C@@H](O)C=C[C@H]3[C@H]1C5", "note": "[morphine]", "values": [{"measurement": "ambulatory activity in sham animals", "setting": "[7]; 1 mg/kg", "value": "stimulates ambulatory activity"}, {"measurement": "effect of laparotomy on ambulatory activity", "setting": "[7]; [11]", "value": "blocked; also recorded: reversed"}, {"measurement": "effect of laparotomy on vertical activity", "setting": "[7]; [11]", "value": "not vertical counts; also recorded: not vertical activity"}]}
{"smiles": "CS(=O)(=O)Nc1ccc([N+](=O)[O-])cc1Oc1ccccc1", "note": "[nimesulide]", "values": [{"measurement": "preference in inhibition of COX-1 and COX-2", "setting": "COX-1 and COX-2", "value": "preferentially inhibit COX-2"}]}
{"smiles": "CN1C(C(=O)Nc2ccccn2)=C(O)c2ccccc2S1(=O)=O", "note": "[piroxicam]", "values": [{"measurement": "well established tactile allodynia in either hindpaw", "setting": "tactile allodynia [2]; 4 weeks after PSNL", "value": "failed to attenuate"}]}
{"smiles": "CS(=O)(=O)c1ccc(C2=C(c3ccccc3)C(=O)OC2)cc1", "note": "[rofecoxib]", "values": [{"measurement": "reduction of nociceptive responses", "setting": "nociceptive responses [8]", "value": "no effect"}, {"measurement": "reduction of nociceptive responses", "setting": "nociceptive responses [9]", "value": "no effect"}]}
